The text below walks through data of patent publication US9797883B2, “Re-trafficking of herg reverses long QT syndrome 2 phenotype in human iPS-derived cardiomyocytes” (Singapore Health Services Pte Ltd, priority 2013, dated 2017).

“Also recorded” adds a separate entry of the source.

The test system of one data set is LQTS2-EBs. The data set is described as follows: Microelectrode array (MEA) extracellular field potential recordings, LQTS2. It counts as cell-based, human. Particulars: for cFPD (repolarization duration): human LQTS2 CMs. An excerpt:
(§1) To characterize the electrophysiological properties of the hiPS-CMs, a microelectrode array (MEA) recording system (Multichannel Systems, Reutlingen, Germany) was used as described previously. Briefly, contracting areas were micro-dissected and plated on MEA plates, allowed to adjust for 72 hrs before recording. All clusters were monitored for their beating abilities (beats/min) under the microscope during the 72 hr period. Clusters that maintained relatively uniform beating rates were then subjected to drugs. The MEA system allows simultaneous recordings from 60 titanium nitride-coated gold electrodes (30 μm) at high spatial (200 μm) and temporal (15 kHz) resolutions. All stock drugs were diluted in medium (2 mL) to assess the effects on the electrophysiological properties. […]. MEA clip along with the beating clusters was maintained on 37° C. throughout the duration of experiments. Care was also taken that all buffers including the medium utilized during all experimentation were pre-warmed to 37° C. All tested drugs were procured from Sigma-Aldrich, MO, USA. All extracellular recordings were performed for 180 seconds at baseline and at 5 minutes after drug application at 37° C. Data were recorded using MC Rack software (Multichannel System) and the recordings were used to determine the local field potential duration (FPD). FPD measurements were normalized (corrected FPD [cFPD]) to the beating rate of the contracting areas with the Bazzet correction formula: cFPD=FPD/√(RR interval).

A further data set relates to control-EBs. The data set is described as follows: Microelectrode array (MEA) extracellular field potential recordings, control. It counts as cell-based, human. Particulars: 100 nM E-4031, control contracting EBs.
From the text: as §1, with “FPD measurements were normalized (corrected FPD [cFPD]) to the beating rate of the contracting areas with the Bazzet correction formula: cFPD=FPD/√(RR interval).” left out

Setting [1] is: atenolol 10 μM after isoproterenol, LQTS2-EBs.

In the case of `Cc1cccc(CCN2CCC(C(=O)c3ccc(NS(C)(=O)=O)cc3)CC2)n1` [E-4031], the “beating rate-corrected field potential duration (cFPD)” value is listed as “increased cFPDs significantly” with LQTS2-EBs (100 nM E-4031, LQTS2 contracting EBs) and “increased cFPDs significantly” with control-EBs.

Regarding `CC(C)NCC(O)c1ccc(O)c(O)c1` (stereo not shown) [isoproterenol], in the data set with LQTS2-EBs (isoproterenol 1 uM, LQTS2-EBs), the arrhythmogenic episodes result was “aggravating arrhythmogenic episodes” and the beating frequencies result is “increased beating frequencies”. In the data set on LQTS2-EBs (isoproterenol 1 uM, LQTS2-EBs, n=15, LQTS2-baseline 0.657±0.07 s), this molecule registered a cFPD of 0.212 ± 0.02 s.

Consider `CC(C)NCC(O)COc1ccc(CC(N)=O)cc1` (stereo not shown) [atenolol], for which, in the data set on LQTS2-EBs (setting [1]), the beating frequencies entry is listed as “reduced the beating frequencies” and the cFPD entry is given as “restored cFPDs”.

As to `O=C([O-])CCCc1ccccc1.[Na+]` [4PBA, sodium 4-phenylbutyrate], the “cFPD (repolarization duration)” value in the data set on LQTS2-EBs (sodium 4-phenylbutyrate 400 μM) was “shortening the cFPD”; in the data set with LQTS2-EBs (sodium 4-phenylbutyrate 400 μM, listed as 4BPA), “shortening of repolarization duration”.

With `Cc1ccc(NC(=O)C2(c3ccc4c(c3)OC(F)(F)O4)CC2)nc1-c1cccc(C(=O)O)c1` [VX-809, 3-[6-[[1-(2,2-difluoro-1,3-benzodioxol-5-yl)cyclopropanecarbonyl]amino]-3-methylpyridin-2-yl]benzoic acid], in the data set on LQTS2-EBs (VX-809 10 μM), the “cFPD (repolarization duration)” value is recorded as “shortening the cFPD; also recorded: shortening of repolarization duration”.
